Measurements as given in ChEMBL document CHEMBL1156251, “Structure--activity relationships of polymyxin antibiotics” (J Med Chem, 2010).
≈ marks a conversion by molar mass, not a printed value. Where “and” joins values, the source holds several entries; their conditions need not be identical. Equal entries are not always repeated. Where a SMILES comes first, the peptide text is derived from it. Bridges are numbered along the chain shown (N, C = ends). [ ]: non-standard residue; d: D form. The star is where a group is joined. Heptanoyl(6-Me) = CC(C)CCCCC(=O)*; Heptanoyl = CCCCCCC(=O)*; Octanoyl = CCCCCCCC(=O)*; Dab = NCC[C@H](N)C(=O)O

Experiments:
Lipopolysaccharide (LPS) = experiment: Displacement of dansyl-PMB from LPS by isothermal titration calorimetry
Salmonella enterica = experiment: Antimicrobial activity against Salmonella enterica; format: functional
Escherichia coli = experiment: Antimicrobial activity against Escherichia coli; format: functional
Pseudomonas aeruginosa = experiment: Antimicrobial activity against Pseudomonas aeruginosa; format: functional, organism-based

SMILES	IC50 (Lipopolysaccharide (LPS))	MIC (Salmonella enterica) [µM]	MIC (Escherichia coli)	MIC (Pseudomonas aeruginosa) [µM]
CCCCCCCC(=O)N[C@@H](CCN)C(=O)N[C@H](C(=O)N[C@@H](CCN)C(=O)N[C@H]1CCNC(=O)[C@H]([C@@H](C)O)NC(=O)[C@H](C)NC(=O)[C@H](CCN)NC(=O)[C@H](CC(C)C)NC(=O)[C@@H](Cc2ccccc2)NC(=O)[C@H](CCN)NC1=O)[C@@H](C)O (Octanoyl-[Dab]T[Dab][Dab][Dab][dF]L[Dab]AT; lactam 4-C)	19 µM	4 (≈ 4.64 µg/mL)	4 µM (≈ 4.64 µg/mL)	2 (≈ 2.32 µg/mL)
CCCCCCCC(=O)N[C@@H](CCN)C(=O)N[C@H](C(=O)N[C@@H](CCN)C(=O)N[C@H]1CCNC(=O)[C@H](C)NC(=O)[C@H](CCN)NC(=O)[C@H](CCN)NC(=O)[C@H](CC(C)C)NC(=O)[C@@H](Cc2ccccc2)NC(=O)[C@H](CCN)NC1=O)[C@@H](C)O (Octanoyl-[Dab]T[Dab][Dab][Dab][dF]L[Dab][Dab]A; lactam 4-C)	5 µM	1 (≈ 1.16 µg/mL)	2 µM (≈ 2.32 µg/mL)	1 (≈ 1.16 µg/mL)
CCCCCCCC(=O)N[C@H](C(=O)N[C@@H](CCN)C(=O)N[C@H]1CCNC(=O)[C@H]([C@@H](C)O)NC(=O)[C@H](CCN)NC(=O)[C@H](CCN)NC(=O)[C@H](CC(C)C)NC(=O)[C@@H](Cc2ccccc2)NC(=O)[C@H](CCN)NC1=O)[C@@H](C)O (stereo in doubt; 231) [Octanoyl Polymixin B nonapeptide]	12 µM	2 (≈ 2.18 µg/mL)	2 µM (≈ 2.18 µg/mL)	2 (≈ 2.18 µg/mL)
CC(C)C[C@@H]1NC(=O)[C@@H](Cc2ccccc2)NC(=O)[C@H](CCN)NC(=O)[C@@H](NC(=O)[C@H](CCN)NC(=O)[C@@H](NC(=O)[C@H](C)NC(=O)O)[C@@H](C)O)CCNC(=O)[C@H]([C@@H](C)O)NC(=O)[C@H](CCN)NC(=O)[C@H](CCN)NC1=O [DESFA-[ALA1]POLYMYXIN B]	>= 32 nmol/ml	64 (≈ 69 µg/mL)	32 µM (≈ 34.5 µg/mL)	32 (≈ 34.5 µg/mL)
CC(C)C[C@@H]1NC(=O)[C@@H](Cc2ccccc2)NC(=O)[C@H](CCN)NC(=O)[C@@H](NC(=O)[C@H](CCN)NC(=O)[C@@H](NC(=O)[C@H](C)NC(=O)[C@@H](C)NC(=O)[C@H](C)N)[C@@H](C)O)CCNC(=O)[C@H]([C@@H](C)O)NC(=O)[C@H](CCN)NC(=O)[C@H](CCN)NC1=O [DESFA-[ALA-ALA-ALA1]POLYMYXIN B]	>= 32 nmol/ml	128 (≈ 151 µg/mL)	64 µM (≈ 75.3 µg/mL)	128 (≈ 151 µg/mL)
CC(C)C[C@@H]1NC(=O)[C@@H](Cc2ccccc2)NC(=O)[C@H](CCN)NC(=O)[C@@H](NC(=O)[C@H](CCN)NC(=O)[C@@H](NC(=O)[C@H](CCCNC(=N)N)NC(=O)O)[C@@H](C)O)CCNC(=O)[C@H]([C@@H](C)O)NC(=O)[C@H](CCN)NC(=O)[C@H](CCN)NC1=O [DESFA-[ARG1]POLYMYXIN B]	15 µM	16 (≈ 18.6 µg/mL)	8 µM (≈ 9.31 µg/mL)	16 (≈ 18.6 µg/mL)
CC(C)C[C@@H]1NC(=O)[C@@H](Cc2ccccc2)NC(=O)[C@H](CCN)NC(=O)[C@@H](NC(=O)[C@H](CCN)NC(=O)[C@@H](NC(=O)[C@H](CCCNC(=N)N)NC(=O)[C@@H](CCCNC(=N)N)NC(=O)[C@@H](N)CCCNC(=N)N)[C@@H](C)O)CCNC(=O)[C@H]([C@@H](C)O)NC(=O)[C@H](CCN)NC(=O)[C@H](CCN)NC1=O [DESFA-[ARG-ARG-ARG1]POLYMYXIN B]	3 µM	64 (≈ 91.6 µg/mL)	16 µM (≈ 22.9 µg/mL)	1 (≈ 1.43 µg/mL)
CC(C)C[C@@H]1NC(=O)[C@@H](Cc2ccccc2)NC(=O)[C@H](CCN)NC(=O)[C@@H](NC(=O)[C@H](CCN)NC(=O)[C@@H](NC(=O)[C@H](Cc2ccccc2)NC(=O)O)[C@@H](C)O)CCNC(=O)[C@H]([C@@H](C)O)NC(=O)[C@H](CCN)NC(=O)[C@H](CCN)NC1=O [DESFA-[PHE1]POLYMYXIN B]	>= 32 nmol/ml	8 (≈ 9.23 µg/mL)	8 µM (≈ 9.23 µg/mL)	16 (≈ 18.5 µg/mL)
CC(C)C[C@@H]1NC(=O)[C@@H](Cc2ccccc2)NC(=O)[C@H](CCN)NC(=O)[C@@H](NC(=O)[C@H](CCN)NC(=O)[C@@H](NC(=O)[C@H](CO)NC(=O)O)[C@@H](C)O)CCNC(=O)[C@H]([C@@H](C)O)NC(=O)[C@H](CCN)NC(=O)[C@H](CCN)NC1=O [DESFA-[SER1]POLYMYXIN B]	>= 32 nmol/ml	64 (≈ 70 µg/mL)	64 µM (≈ 70 µg/mL)	1 (≈ 1.09 µg/mL)
CCCCCCCC(=O)N[C@@H](CCN)C(=O)N[C@H](C(=O)N[C@@H](CCN)C(=O)N[C@H]1CCNC(=O)[C@@H]([C@@H](C)O)NC(=O)[C@H](CCN)NC(=O)[C@H](CCN)NC(=O)[C@H](CC(C)C)NC(=O)[C@@H](Cc2ccccc2)NC(=O)[C@H](CCN)NC1=O)[C@@H](C)O [POLYMYXIN B3]	8 µM	0.5 (≈ 0.595 µg/mL)	0.5 µM (≈ 0.595 µg/mL)	1 (≈ 1.19 µg/mL)

The remaining lines, values ahead:

IC50 (Lipopolysaccharide (LPS))	MIC (Salmonella enterica) [µM]	MIC (Escherichia coli)	MIC (Pseudomonas aeruginosa) [µM]	SMILES
6 µM	2 (≈ 2.46 µg/mL)	2 µM (≈ 2.46 µg/mL)	2 (≈ 2.46 µg/mL)	CCCCCCCC(=O)N[C@@H](CCN)C(=O)N[C@H](C(=O)N[C@@H](CCN)C(=O)N[C@H]1CCNC(=O)[C@H]([C@@H](C)O)NC(=O)[C@H](CCN)NC(=O)[C@H](CCN)NC(=O)[C@H](CC(C)C)NC(=O)C(Cc2c[nH]c3ccccc23)NC(=O)[C@H](CCN)NC1=O)[C@@H](C)O (stereo in doubt)
13 µM	16 (≈ 17.7 µg/mL)	8 µM and 30 µg/mL	4 (≈ 4.42 µg/mL)	CC(=O)N[C@@H](CCN)C(=O)N[C@H](C(=O)N[C@@H](CCN)C(=O)N[C@H]1CCNC(=O)[C@H]([C@@H](C)O)NC(=O)[C@H](CCN)NC(=O)[C@H](CCN)NC(=O)[C@H](CC(C)C)NC(=O)[C@@H](Cc2ccccc2)NC(=O)[C@H](CCN)NC1=O)[C@@H](C)O [DEACYL POLYMYXIN B] (Ac-[Dab]T[Dab][Dab][Dab][dF]L[Dab][Dab]T; lactam 4-C)
19 µM	16 (≈ 17.7 µg/mL)	8 µM (≈ 8.86 µg/mL)	4 (≈ 4.43 µg/mL)	CC(C)C[C@@H]1NC(=O)[C@@H](Cc2ccccc2)NC(=O)[C@H](CCN)NC(=O)[C@@H](NC(=O)[C@H](CCN)NC(=O)[C@@H](NC(=O)[C@H](CCN)NC(=O)O)[C@@H](C)O)CCNC(=O)[C@H]([C@@H](C)O)NC(=O)[C@H](CCN)NC(=O)[C@H](CCN)NC1=O [DESFA-[DAB1]POLYMYXIN B]
3 µM	32 (≈ 40.4 µg/mL)	8 µM (≈ 10.1 µg/mL)	0.5 (≈ 0.632 µg/mL)	CC(C)C[C@@H]1NC(=O)[C@@H](Cc2ccccc2)NC(=O)[C@H](CCN)NC(=O)[C@@H](NC(=O)[C@H](CCN)NC(=O)[C@@H](NC(=O)[C@H](CCN)NC(=O)[C@@H](CCN)NC(=O)[C@@H](N)CCN)[C@@H](C)O)CCNC(=O)[C@H]([C@@H](C)O)NC(=O)[C@H](CCN)NC(=O)[C@H](CCN)NC1=O [DESFA-[DAB-DAB-DAB1]POLYMYXIN B]
>= 32 nmol/ml	> 256	≥ 256 µM	256 (≈ 291 µg/mL)	CC(C)C[C@@H]1NC(=O)[C@@H](Cc2ccccc2)NC(=O)[C@H](CCN)NC(=O)[C@@H](NC(=O)[C@H](CCN)NC(=O)[C@@H](NC(=O)[C@H](CCC(=O)O)NC(=O)O)[C@@H](C)O)CCNC(=O)[C@H]([C@@H](C)O)NC(=O)[C@H](CCN)NC(=O)[C@H](CCN)NC1=O [DESFA-[GLU1]POLYMYXIN B]
>= 32 nmol/ml	32 (≈ 35.9 µg/mL)	16 µM (≈ 17.9 µg/mL)	64 (≈ 71.7 µg/mL)	CC(C)C[C@H](NC(=O)O)C(=O)N[C@H](C(=O)N[C@@H](CCN)C(=O)N[C@H]1CCNC(=O)[C@H]([C@@H](C)O)NC(=O)[C@H](CCN)NC(=O)[C@H](CCN)NC(=O)[C@H](CC(C)C)NC(=O)[C@@H](Cc2ccccc2)NC(=O)[C@H](CCN)NC1=O)[C@@H](C)O [DESFA-[LEU1]POLYMYXIN B]
22 µM	32 (≈ 36.3 µg/mL)	16 µM (≈ 18.2 µg/mL)	32 (≈ 36.3 µg/mL)	CC(C)C[C@@H]1NC(=O)[C@@H](Cc2ccccc2)NC(=O)[C@H](CCN)NC(=O)[C@@H](NC(=O)[C@H](CCN)NC(=O)[C@@H](NC(=O)[C@H](CCCCN)NC(=O)O)[C@@H](C)O)CCNC(=O)[C@H]([C@@H](C)O)NC(=O)[C@H](CCN)NC(=O)[C@H](CCN)NC1=O [DESFA-[LYS1]POLYMYXIN B]
9 µM	1 (≈ 1.19 µg/mL)	1 µM (≈ 1.19 µg/mL)	1 (≈ 1.19 µg/mL)	CC(C)CCCCC(=O)N[C@@H](CCN)C(=O)N[C@H](C(=O)N[C@@H](CCN)C(=O)N[C@H]1CCNC(=O)[C@H]([C@@H](C)O)NC(=O)[C@H](CCN)NC(=O)[C@H](CCN)NC(=O)[C@H](CC(C)C)NC(=O)[C@@H](Cc2ccccc2)NC(=O)[C@H](CCN)NC1=O)[C@@H](C)O [POLYMYXIN B2] ({Heptanoyl(6-Me)}-[Dab]T[Dab][Dab][Dab][dF]L[Dab][Dab]T; lactam 4-C)
10 µM	0.5 (≈ 0.588 µg/mL)	0.5 µM (≈ 0.588 µg/mL)	0.5 (≈ 0.588 µg/mL)	CCCCCCC(=O)N[C@@H](CCN)C(=O)N[C@H](C(=O)N[C@@H](CCN)C(=O)N[C@H]1CCNC(=O)[C@H]([C@@H](C)O)NC(=O)[C@H](CCN)NC(=O)[C@H](CCN)NC(=O)[C@H](CC(C)C)NC(=O)[C@@H](Cc2ccccc2)NC(=O)[C@H](CCN)NC1=O)[C@@H](C)O [POLYMYXIN B4] (Heptanoyl-[Dab]T[Dab][Dab][Dab][dF]L[Dab][Dab]T; lactam 4-C)
